Reference: patent publication US20210032257A1, “(E)-1-(4-(DIMETHYLAMINO)BUT-2-ENOYL)PYRROLIDIN-3-YL 4-((3-ISOPROPYL-5-METHYLPYRAZOLO[1,5-A]PYRIMIDIN-7-YL)AMINO)PIPERIDINE-1-CARBOXYLATE FOR INHIBITING CDK7” (Eli Lilly and Company, priority 2017, published 2021)

Columns and labels:
Assay in all cases: Biomarker study proliferation (CellTiter-Glo)
Type in all cases: cell-based
SW900 = tested on: SW900
Experimental: (§1) Cancer cell lines are profiled to evaluate the anti-proliferative activity of a test compound in-vitro. Mutation, copy number and gene expression information of ARID1A, KMT2C, KMT2D and/or RB1 genes across cancer cell lines is obtained from COSMIC database (cancer.sanger.ac.uk) and cBioportal (http://www.cbioportal.org/). Cells are cultured in growth medium and plated into a 96-well plate in 100 μL/well growth medium at 5000 cells/well then incubated at 37° C., 5% CO2 overnight. Cells are cultured using supplier recommended media and conditions well known in the art, for example with RPMI 1640 with or without HEPES & L-Glutamine (Thermo SH30255.01) and 1 mM Sodium Pyruvate, and 10% FBS(Gibco cat #10082). The 1000× intermediate dilution plate is prepared by making a 10 mM working solution of a test sample in DMSO and performing 1:3 dilutions in DMSO for 10 points. The 10× dosing plate is prepared by adding 2 μL from the 1000× intermediate dilution plate to 198 μL of OPTIMEM®+10% FBS and mixing well. The cell plate is then treated by adding 11 μL from the 10× dosing plate into the 100 μL/well cell plate for a 1× final concentration. Staurosporine is used as a maximum growth inhibition control at a final concentration of 5 μM. The cell plate is incubated for 7 days at 37° C., 5% CO2. Seven days after treatment, Cell Titer-Glo® (Promega cat #G7571) assay buffer and substrate are removed from −20° C. and allowed to equilibrate to RT. Assay buffer is added to the substrate and swirled gently to mix. The CELL TITER-GLO® reagent (100 μL/well) is added to the cell plate and incubated at RT for 15 minutes. After 15 minutes, luminescence is read using a plate reader. Data is analyzed in Excel and graphed in GraphPad Prism. Statistical analysis and p value is calculated using Mann-Whitney nonparameteric t tests using GraphPad Prism.
(§2) Anti-proliferative effects of a test compound are categorized as insensitive (IC50≥1 μM), cytostatic (IC50<1 μM and % inhibition <70%) or cytotoxic (IC50<1 μM and % inhibition ≥70%).

PLCPRF5 = tested on: PLCPRF5
Experimental: as §1, §2

DMS273 = tested on: DMS273
Experimental: as §1, §2

SNU1079 = tested on: SNU1079
Experimental: as §1, §2

CAOV3 = tested on: CAOV3
Experimental: as §1, §2

SNU423 = tested on: SNU423
Experimental: as §1, §2

SNU387 = tested on: SNU387
Experimental: as §1, §2

KYSE180 = tested on: KYSE180
Experimental: as §1, §2

Raw264.7 = tested on: Raw264.7
Experimental: as §1, §2

NCIH2347 = tested on: NCIH2347
Experimental: as §1, §2

KELLY = tested on: KELLY
Experimental: as §1, §2

SW626 = tested on: SW626
Experimental: as §1, §2

OCUM1 = tested on: OCUM1
Experimental: as §1, §2

NCIH460 = tested on: NCIH460
Experimental: as §1, §2

KYSE70 = tested on: KYSE70
Experimental: as §1, §2

TOV112D = tested on: TOV112D
Experimental: as §1, §2

SKHEP1 = tested on: SKHEP1
Experimental: as §1, §2

U118MG = tested on: U118MG
Experimental: as §1, §2

SMILES: Cc1cc(NC2CCN(C(=O)O[C@H]3CCN(C(=O)/C=C/CN(C)C)C3)CC2)n2ncc(C(C)C)c2n1 [Example 1, [(3S)-1-[(E)-4-(dimethylamino)but-2-enoyl]pyrrolidin-3-yl] 4-[(3-isopropyl-5-methyl-pyrazolo[1,5-a]pyrimidin-7-yl)amino]piperidine-1-carboxylate]
- IC50 (SW900; Homo sapiens, SW900, 168 h, read-out: Anti-proliferation effect IC50): 3810 nM
- Anti-proliferation effect % Inh. (SW900; SW900, LUNG, 7 days): 13%
- Anti-proliferation effect Outcome (SW900; SW900, LUNG, 7 days): Insensitive (insensitive (IC50≥1 μM))
- IC50 (PLCPRF5; Homo sapiens, PLC-PRF-5, 168 h, read-out: Anti-proliferation effect IC50): > 10000 nM
- Anti-proliferation effect % Inh. (PLCPRF5; PLCPRF5, LIVER, 7 days): 41%
- Anti-proliferation effect Outcome (PLCPRF5; PLCPRF5, LIVER, 7 days): Insensitive (insensitive (IC50≥1 μM))
- Anti-proliferation effect % Inh. (DMS273; DMS273, LUNG, 7 days): 80%
- Anti-proliferation effect Outcome (DMS273; DMS273, LUNG, 7 days): Cytotoxic (cytotoxic (IC50<1 μM and % inhibition ≥70%))
- IC50 (DMS273; Homo sapiens, DMS-273, 168 h, read-out: Anti-proliferation effect IC50): 19 nM
- IC50 (SNU1079; 168 h, read-out: Anti-proliferation effect IC50): 38 nM
- Anti-proliferation effect % Inh. (SNU1079; SNU1079, BILIARY, 7 days): 89%
- Anti-proliferation effect Outcome (SNU1079; SNU1079, BILIARY, 7 days): Cytotoxic (cytotoxic (IC50<1 μM and % inhibition ≥70%))
- Anti-proliferation effect % Inh. (CAOV3; CAOV3, OVARY, 7 days): 96%
- Anti-proliferation effect Outcome (CAOV3; CAOV3, OVARY, 7 days): Cytotoxic (cytotoxic (IC50<1 μM and % inhibition ≥70%))
- IC50 (CAOV3; Homo sapiens, Caov-3, 168 h, read-out: Anti-proliferation effect IC50): 19 nM
- IC50 (SNU423; Homo sapiens, SNU-423, 168 h, read-out: Anti-proliferation effect IC50): > 10000 nM
- Anti-proliferation effect % Inh. (SNU423; SNU423, LIVER, 7 days): 40%
- Anti-proliferation effect Outcome (SNU423; SNU423, LIVER, 7 days): Insensitive (insensitive (IC50≥1 μM))
- IC50 (SNU387; Homo sapiens, SNU-387, 168 h, read-out: Anti-proliferation effect IC50): > 10000 nM
- Anti-proliferation effect % Inh. (SNU387; SNU387, LIVER, 7 days): 12%
- Anti-proliferation effect Outcome (SNU387; SNU387, LIVER, 7 days): Insensitive (insensitive (IC50≥1 μM))
- IC50 (KYSE180; Homo sapiens, KYSE-180, 168 h, read-out: Anti-proliferation effect IC50): 103 nM
- Anti-proliferation effect % Inh. (KYSE180; KYSE180, OESOPHAGUS, 7 days): 68%
- Anti-proliferation effect Outcome (KYSE180; KYSE180, OESOPHAGUS, 7 days): Cytostatic (cytostatic (IC50<1 μM and % inhibition <70%))
- IC50 (Raw264.7; Mus musculus, RAW264.7, 168 h, read-out: Anti-proliferation effect IC50): 355 nM
- Anti-proliferation effect % Inh. (Raw264.7; Raw264.7, 7 days): 62%
- Anti-proliferation effect Outcome (Raw264.7; Raw264.7, 7 days): Cytostatic (cytostatic (IC50<1 μM and % inhibition <70%))
- IC50 (NCIH2347; Homo sapiens, NCI-H2347, 168 h, read-out: Anti-proliferation effect IC50): 661 nM
- Anti-proliferation effect % Inh. (NCIH2347; NCIH2347, LUNG, 7 days): 45%
- Anti-proliferation effect Outcome (NCIH2347; NCIH2347, LUNG, 7 days): Cytostatic (cytostatic (IC50<1 μM and % inhibition <70%))
- Anti-proliferation effect % Inh. (KELLY; KELLY, CNS, 7 days): 80%
- Anti-proliferation effect Outcome (KELLY; KELLY, CNS, 7 days): Cytotoxic (cytotoxic (IC50<1 μM and % inhibition ≥70%))
- IC50 (KELLY; Kelly, 168 h, read-out: Anti-proliferation effect IC50): 58 nM
- IC50 (SW626; Homo sapiens, SW626, 168 h, read-out: Anti-proliferation effect IC50): 1100 nM
- Anti-proliferation effect % Inh. (SW626; SW626, 7 days): 39%
- Anti-proliferation effect Outcome (SW626; SW626, 7 days): Insensitive (insensitive (IC50≥1 μM))
- IC50 (OCUM1; OCUM1, 168 h, read-out: Anti-proliferation effect IC50): 27 nM
- Anti-proliferation effect % Inh. (OCUM1; OCUM1, STOMACH, 7 days): 82%
- Anti-proliferation effect Outcome (OCUM1; OCUM1, STOMACH, 7 days): Cytotoxic (cytotoxic (IC50<1 μM and % inhibition ≥70%))
- IC50 (NCIH460; Homo sapiens, NCI-H460, 168 h, read-out: Anti-proliferation effect IC50): 47 nM
- Anti-proliferation effect % Inh. (NCIH460; NCIH460, LUNG, 7 days): 97%
- Anti-proliferation effect Outcome (NCIH460; NCIH460, LUNG, 7 days): Cytotoxic (cytotoxic (IC50<1 μM and % inhibition ≥70%))
- IC50 (KYSE70; Homo sapiens, KYSE-70, 168 h, read-out: Anti-proliferation effect IC50): 126 nM
- Anti-proliferation effect % Inh. (KYSE70; KYSE70, OESOPHAGUS, 7 days): 70%
- Anti-proliferation effect Outcome (KYSE70; KYSE70, OESOPHAGUS, 7 days): Cytotoxic (cytotoxic (IC50<1 μM and % inhibition ≥70%))
- IC50 (TOV112D; Homo sapiens, 168 h, read-out: Anti-proliferation effect IC50): 25 nM
- Anti-proliferation effect % Inh. (TOV112D; OVARY, 7 days): 81%
- Anti-proliferation effect Outcome (TOV112D; OVARY, 7 days): Cytotoxic (cytotoxic (IC50<1 μM and % inhibition ≥70%))
- IC50 (SKHEP1; Homo sapiens, SK-HEP1, 168 h, read-out: Anti-proliferation effect IC50): 118 nM
- Anti-proliferation effect % Inh. (SKHEP1; SKHEP1, LIVER, 7 days): 71%
- Anti-proliferation effect Outcome (SKHEP1; SKHEP1, LIVER, 7 days): Cytotoxic (cytotoxic (IC50<1 μM and % inhibition ≥70%))
- IC50 (U118MG; Homo sapiens, U-118-MG, 168 h, read-out: Anti-proliferation effect IC50): 1170 nM
- Anti-proliferation effect % Inh. (U118MG; U118MG, CNS, 7 days): 42%
- Anti-proliferation effect Outcome (U118MG; U118MG, CNS, 7 days): Insensitive (insensitive (IC50≥1 μM))
